Assays:
shattercane = experiment: Test Example 4: pot test, soil treatment, visual growth inhibition of shattercane; assay type: in vivo, Sorghum bicolor (L.) Moench.; conditions: Sorghum bicolor, soil treatment on the day after sowing, 14th day after treatment, read-out: Growth inhibition rate (%) of shattercane, Measured value
Description: Upland field soil was put into a 1/1,000,000 ha pot, and seeds of shattercane (Sorghum bicolor (L.) Moench.) were sown. On the next day, SHIBAGEN DF (tradename) and Unimark (tradename) in predetermined amounts were diluted with water corresponding to 300 L/ha and applied for soil treatment by a small sprayer.
On the 14th day after the treatment, the state of growth of shattercane was visually observed, and the growth inhibition rate (%) obtained in the same manner as in Test Example 1 is shown in Table 4.

goosegrass [1] = experiment: Test Example 1: pot test, soil treatment, visual growth inhibition of goosegrass; assay type: in vivo, Eleusine indica (L.) Gaertn.; conditions: Eleusine indica, 24 h, soil treatment one day after sowing, 14th day after treatment, read-out: Growth inhibition rate (%) of goosegrass, Measured value
Description: Upland field soil was put into a 1/1,000,000 hectare pot, and seeds of goosegrass (Eleusine indica (L.) Gaertn.) were sown. One day later, water dispersible granules containing flazasulfuron as an active ingredient (tradename: SHIBAGEN DF, manufactured by Ishihara Sangyo Kaisha, Ltd.) and water dispersible granules containing metribuzin as an active ingredient (tradename: Unimark, manufactured by UPL) in predetermined amounts were diluted with water corresponding to 200 L/ha and applied for soil treatment by a small sprayer.
On the 14th day after the treatment, the state of growth of goosegrass was visually observed to determine the growth inhibition rate (%) (measured value) in accordance with the following evaluation standard. Further, in accordance with the Colby's formula, the growth inhibition rate (%) (calculated value) was calculated. Growth inhibition rate(%)=0 (equivalent to the non-treated area) to 100 (complete kill)

[2] = system: summergrass, giant foxtail, redroot pigweed and threeseeded copperleaf; experiment: Test Example 5: field test, foliar treatment, weed coverage (residual activity); assay type: in vivo; conditions: for Weed coverage (%) 6th day after treatment / Weed coverage (%) 20th day after treatment / Weed coverage (%) 33rd day after treatment: field, foliar treatment with 0.25 vol % Agral, coverage relative to non-treated area; for change in weed coverage: on the 20th day after the treatment, single active ingredient, field test
Text: In a field in which summergrass (Digitaria ciliaris (Retz.) Koel), giant foxtail (Setaria faberi Herrm.), redroot pigweed (Amaranthus retroflexus L.) and threeseeded copperleaf (Acalypha australis L.) emerged, was compartmentalized into compartments of 0.5×1 m. When summergrass reached from 5 to 10 leaf stage, giant foxtail reached from 6 to 7 leaf stage, threeseeded copperleaf reached from 4 to 10 leaf stage and redroot pigweed reached from 6 to 9 leaf stage, SHIBAGEN DF (tradename) and Unimark (tradename) in predetermined amounts were diluted with water (corresponding to 200 L/ha) containing 0.25 vol % of an agricultural adjuvant Agral (tradename) and applied for foliar treatment by a small sprayer in each compartment.
On the 6th, 20th and 33rd days after the treatment, the weed coverage (%) of the above four types of weeds in each compartment was visually observed, and the results are shown in Table 5 and FIG. 1. The weed coverage (%) was calculated in accordance with the following formula.
A: (the area of the ground surface covered with the weed aerial part (leaves and stem) in the treated area)
B: (the area of the ground surface covered with the weed aerial part (leaves and stem) in the non-treated area) Weed coverage(%)=(A/B)×100
In FIG. 1, x-x represents the weed coverage in the area treated with flazasulfuron, ▴-▴ represents the weed coverage in the area treated with metribuzin, and ●-● represents the weed coverage in the area treated with flazasulfuron and metribuzin in combination.

goosegrass [3] = experiment: Test Example 2: pot test, foliar treatment at 5 leaf stage, visual growth inhibition of goosegrass; assay type: in vivo, Eleusine indica (L.) Gaertn.; conditions: Eleusine indica, foliar treatment at 5 leaf stage with 0.25 vol % Agral, 28th day after treatment, read-out: Growth inhibition rate (%) of goosegrass, Measured value
Description: Upland field soil was put into a 1/1,000,000 ha pot, and seeds of goosegrass (Eleusine indica (L.) Gaertn.) were sown. When goosegrass reached 5 leaf stage, SHIBAGEN DF (tradename) and Unimark (tradename) in predetermined amounts were diluted with water (corresponding to 200 L/ha) containing 0.25 vol % of an agricultural adjuvant (tradename: Agral, manufactured by Syngenta crop protection) and applied for foliar treatment by a small sprayer.
On the 28th day after the treatment, the state of growth of goosegrass was visually observed, and the growth inhibition rate (%) obtained in the same manner as in Test Example 1 is shown in Table 2.

ivy-leaved morningglory = experiment: Test Example 3: pot test, treatment the day after sowing, visual growth inhibition of ivy-leaved morningglory; assay type: in vivo, Ipomoea hederacea (L.) Jacq.; conditions: Ipomoea, treatment on the day after sowing, 14th day after treatment, read-out: Growth inhibition rate (%) of ivy-leaved morningglory, Measured value
Description: Upland field soil was put into a 1/1,000,000 ha pot, and seeds of ivy-leaved momingglory (Ipomoea hederacea (L.) Jacq.) were sown. On the next day, SHIBAGEN DF (tradename) and Unimark (tradename) in predetermined amounts were diluted with water corresponding to 300 L/ha and applied for […] by a small sprayer. On the 14th day after the treatment, the state of growth of ivy-leaved momingglory was visually observed, and the growth inhibition rate (%) obtained in the same manner as in Test Example 1 is shown in Table 3.

Row | Compound | inhibition at 15 g/ha (shattercane; dose 15 g/ha) [%] | inhibition at 18.75 g/ha (goosegrass [1]; dose 18.75 g/ha, 0 = non-treated, 100 = complete kill) [%] | Weed coverage (%) 6th day after treatment ([2]; dose 37.5 g/ha) [%] | Weed coverage (%) 20th day after treatment ([2]; dose 37.5 g/ha) [%] | Weed coverage (%) 33rd day after treatment ([2]; dose 37.5 g/ha) [%] | change in weed coverage [2] | inhibition at 37.5 g/ha (goosegrass [3]; dose 37.5 g/ha) [%] | inhibition at 100 g/ha (ivy-leaved morningglory; dose 100 g/ha) [%] | inhibition at 2000 g/ha (shattercane; dose 2,000 g/ha) [%] | inhibition at 300 g/ha (goosegrass [1]; dose 300 g/ha) [%] | inhibition at 600 g/ha (goosegrass [1]; dose 600 g/ha) [%] | Weed coverage (%) 6th day after treatment ([2]; dose 1,200 g/ha) [%] | Weed coverage (%) 20th day after treatment ([2]; dose 1,200 g/ha) [%] | Weed coverage (%) 33rd day after treatment ([2]; dose 1,200 g/ha) [%] | inhibition at 800 g/ha (goosegrass [3]; dose 800 g/ha) [%] | inhibition at 1000 g/ha (goosegrass [3]; dose 1,000 g/ha) [%] | inhibition at 300 g/ha (ivy-leaved morningglory; dose 300 g/ha) [%]
1 | COc1cc(OC)nc(NC(=O)NS(=O)(=O)c2ncccc2C(F)(F)F)n1 [Flazasulfuron, 1-(4,6-dimethoxypyrimidin-2-yl)-3-(3-trifluoromethyl-2-pyridylsulfonyl)urea] | 30 | 30 | 26 | 30 | 65 | an increase in the weed coverage was confirmed | 25 | 80 | – | – | – | – | – | – | – | – | –
2 | CSc1nnc(C(C)(C)C)c(=O)n1N [Metribuzin, 4-amino-6-tertiary butyl-3-methylthio-1,2,4-triazin-5(4H)-one] | – | – | – | – | – | an increase in the weed coverage was confirmed | – | – | 20 | 55 | 73 | 19 | 24 | 35 | 83 | 90 | 0

Reference: patent US8921271B2, “Herbicidal composition comprising flazasulfuron and metribuzin” (Ishihara Sangyo Kaisha, Ltd., priority 2011, dated 2014)
